In US20160090383A1, “ANTIBACTERIAL PHTHALIDE DERIVATIVES” (priority 2013, published 2016):

Tests used:
Assay in all cases: Bacterial growth minimal inhibitory concentration (microdilution, CLSI M7-A7)
Assay type in all cases: cell-based
[1] = test system: Moraxella catarrhalis A894; details: quinolone-sensitive strain; cation-adjusted Mueller-Hinton Broth
Method: (§1) Minimal Inhibitory Concentrations (MICs; […]) were determined in cation-adjusted Mueller-Hinton Broth by a microdilution method following the description given in “Methods for Dilution Antimicrobial Susceptibility Tests for Bacteria that Grow Aerobically”, Approved standard, 7th ed., Clinical and Laboratory Standards Institute (CLSI) Document M7-A7, Wayne, Pa., USA, 2006.

[2] = test system: Enterococcus faecium A949; details: multiply-resistant strain (quinolone-resistant and vancomycin-resistant); cation-adjusted Mueller-Hinton Broth
Method: as §1

[3] = test system: Streptococcus pneumonia ATTC49619; details: quinolone-sensitive strain; cation-adjusted Mueller-Hinton Broth
Method: as §1

[4] = test system: Staphylococcus aureus A798; details: multiply-resistant strain (quinolone-resistant and methicillin-resistant); cation-adjusted Mueller-Hinton Broth
Method: as §1

[5] = test system: Staphylococcus aureus ATCC29213; details: methicillin-sensitive and quinolone-sensitive strain; cation-adjusted Mueller-Hinton Broth
Method: as §1

Substance | MIC for M. catarrhalis A894 [1] [µg/mL] | MIC for E. faecium A949 [2] [µg/mL] | MIC for S. pneumonia ATTC49619 [3] [µg/mL] | MIC for S. aureus A798 [4] | MIC for S. aureus ATCC29213 [5]
(S)-3-Oxo-5-phenyl-1,3-dihydro-isobenzofuran-1-carboxylic acid [2-((R)-9-fluoro-4-oxo-1,2-dihydro-4H-pyrrolo[3,2,1-ij]quinolin-1-ylamino)-ethyl]-amide and (S)-3-Oxo-5-phenyl-1,3-dihydro-isobenzofuran-1-carboxylic acid [2-((R)-9-fluoro-4-oxo-1,2-dihydro-4H-pyrrolo[3,2,1-ij]quinolin-1-ylamino)-ethyl]-amide [Example 14] | 4 | 0.5 | 2 | 0.125 µg/mL | 0.125 µg/mL
(S)-9-Fluoro-1-[3-((R)-3-oxo-5-phenyl-1,3-dihydro-isobenzofuran-1-yl)-propylamino]-1,2-dihydro-pyrrolo[3,2,1-ij]quinolin-4-one and (S)-9-Fluoro-1-[3-((S)-3-oxo-5-phenyl-1,3-dihydro-isobenzofuran-1-yl)-propylamino]-1,2-dihydro-pyrrolo[3,2,1-ij]quinolin-4-one [Example 7] | 2 | 0.125 | 0.125 | 0.125 µg/mL | 0.031 µg/mL
N—((R)-9-Fluoro-4-oxo-1,2-dihydro-4H-pyrrolo[3,2,1-ij]quinolin-1-ylmethyl)-2-((R)-3-oxo-5-phenyl-1,3-dihydro-isobenzofuran-1-yl)-acetamide and N—((R)-9-Fluoro-4-oxo-1,2-dihydro-4H-pyrrolo[3,2,1-ij]quinolin-1-ylmethyl)-2-((S)-3-oxo-5-phenyl-1,3-dihydro-isobenzofuran-1-yl)-acetamide [Example 1] | 0.25 | 0.125 | 0.125 | ≦0.016 mg/L | ≦0.016 mg/L
rac-5-(2,5-Difluoro-phenyl)-3-oxo-1,3-dihydro-isobenzofuran-1-carboxylic acid [3-(7-fluoro-2-oxo-2H-quinolin-1-yl)-propyl]-amide [Example 20] | 0.25 | 1 | 2 | 0.063 µg/mL | 0.063 µg/mL
